{"source": "patent US6984649B1", "about": "“Pyridine derivatives” (Bayer Aktiengesellschaft, priority 2000, dated 2006)", "note": "Counter-ions that a name gives are not always drawn.", "data": [{"molecular_target": "T1, human IKK-β (Homo sapiens, UniProt O14920)", "T1 construct": "A cDNA fragment encoding human IKK-β open reading frame was generated by PCR; His tag (from pcDNA3.1/His C); made in house; host or cells: Sf21 insect cells (baculovirus); substrate made in E. coli", "T1 sequence (O14920 1-756)": "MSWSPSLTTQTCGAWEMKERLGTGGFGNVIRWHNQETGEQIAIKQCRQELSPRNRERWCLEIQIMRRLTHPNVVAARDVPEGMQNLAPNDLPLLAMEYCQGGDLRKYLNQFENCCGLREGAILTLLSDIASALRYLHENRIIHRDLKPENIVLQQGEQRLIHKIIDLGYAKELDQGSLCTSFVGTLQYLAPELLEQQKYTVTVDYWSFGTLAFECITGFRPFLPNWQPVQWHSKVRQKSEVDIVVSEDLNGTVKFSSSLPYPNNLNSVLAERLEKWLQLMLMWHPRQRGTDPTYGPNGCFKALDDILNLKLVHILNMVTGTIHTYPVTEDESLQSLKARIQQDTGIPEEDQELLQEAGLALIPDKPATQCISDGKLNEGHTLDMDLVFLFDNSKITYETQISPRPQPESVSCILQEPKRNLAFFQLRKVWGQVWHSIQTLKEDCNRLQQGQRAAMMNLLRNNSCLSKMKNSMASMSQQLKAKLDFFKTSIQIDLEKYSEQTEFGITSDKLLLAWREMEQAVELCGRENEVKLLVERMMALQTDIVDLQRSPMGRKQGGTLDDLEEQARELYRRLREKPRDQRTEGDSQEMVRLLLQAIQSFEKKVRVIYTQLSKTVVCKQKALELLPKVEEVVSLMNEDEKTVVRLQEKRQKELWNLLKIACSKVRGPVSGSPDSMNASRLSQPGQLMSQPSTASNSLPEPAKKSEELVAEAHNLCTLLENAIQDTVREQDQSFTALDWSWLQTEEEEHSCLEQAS", "assay": "IKK-β kinase inhibitory assay", "format": "biochemical", "details": "compounds as yielded by solid phase synthesis, purity about 40 to 90%, read-out: In vitro activity grade (In vitro IC50)", "procedure,_shortened": "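His-tagged human IKK-β from baculovirus-infected Sf21 cells (0.6 μg/ml final) phosphorylates biotinylated GST-IκBα(1-54) (0.2 μM) in Tris-HCl pH 7.6 buffer with MgCl2. ATP with [γ-33P]ATP added, then 2 h at room temperature. Biotinylated substrate captured on streptavidin plates; bound radioactivity counted by scintillation.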", "units": {"IC50": "nM"}, "values": [{"smiles": "CC1OC(=O)Nc2nc(-c3ccccc3O)cc(C3CCCNC3)c21", "note": "(stereo not drawn) [Example 18-3, hydrochloride]", "IC50": "500 to 2000"}, {"smiles": "NC(Cc1ccccc1)c1cc(-c2ccccc2O)nc2c1COC(=O)N2", "note": "(stereo not drawn) [Example 18-4/18-5, 5-(1-Amino-2-phenyl-ethyl)-7-(2-hydroxy-phenyl)-1,4-dihydro-pyrido[2,3-d][1,3]oxazin-2-one hydrochloride]", "IC50": "< 500"}, {"smiles": "O=C1Nc2nc(-c3ccccc3O)cc(C3=CCCNC3)c2CO1", "note": "[Example 18-6]", "IC50": "< 500"}, {"smiles": "Nc1nc(-c2c(O)cccc2OCc2ccccc2)cc2c1CN1CCCC2C1", "note": "(stereo not drawn) [Example 20-1, 2-(6-amino-5,9-diazatricyclo[7.3.1.02,7]trideca-2,4,6-trien-4-yl)-3-(benzyloxy)phenol hydrochloride]", "IC50": "500 to 2000"}, {"smiles": "Nc1nc(-c2ccccc2O)cc2c1CN[C@@H]2Cc1ccccc1", "note": "[Example 20-2, 2-[(1R)-4-amino-1-benzyl-2,3-dihydro-1H-pyrrolo[3,4-d]pyridin-6-yl]phenol hydrochloride]", "IC50": "< 500"}, {"smiles": "Nc1nc(-c2c(O)cccc2OCC2CC2)cc(C2CCCNC2)c1CSc1ccccc1", "note": "(stereo not drawn) [Example 21-1, 2-[6-amino-5-[(phenylsulfanyl)methyl]-4-(3-piperidinyl)-2-pyridinyl]-3-(cyclopropylmethoxy)phenol hydrochloride]", "IC50": "< 500"}, {"smiles": "Nc1nc(-c2c(O)cccc2OCC2CC2)cc(C2CCNCC2)c1Cn1ccnc1", "note": "[Example 21-2, 2-[6-amino-5-(1H-imidazol-1-ylmethyl)-4-(4-piperidinyl)-2-pyridinyl]-3-(cyclopropylmethoxy)phenol hydrochloride]", "IC50": "< 500"}, {"smiles": "Nc1nc(-c2c(O)cccc2OCC2CC2)cc(C2CCNCC2)c1COc1ccccc1", "note": "[Example 21-3, 2-[6-amino-5-(phenoxymethyl)-4-(4-piperidinyl)-2-pyridinyl]-3-(cyclopropylmethoxy)phenol hydrochloride]", "IC50": "< 500"}, {"smiles": "Nc1nc(-c2c(O)cccc2OCC2CC2)cc(C2CCNCC2)c1CON1C(=O)CCC1=O", "note": "[Example 21-4, 1-{[2-amino-6-[2-(cyclopropylmethoxy)-6-hydroxyphenyl]-4-(4-piperidinyl)-3-pyridinyl]methoxy}-2,5-pyrrolidinedione hydrochloride]", "IC50": "< 500"}, {"smiles": "O=C1NCc2c(C3CCCNC3)cc(-c3ccccc3O)nc2N1", "note": "(stereo not drawn) [Example 22-1, 7-(2-hydroxyphenyl)-5-(3-piperidinyl)-3,4-dihydropyrido[2,3-d]pyrimidin-2(1H)-one hydrochloride]", "IC50": "< 500"}, {"smiles": "O=C1NCc2c(C3CCCNC3)cc(-c3c(O)cccc3OCC3CC3)nc2N1", "note": "(stereo not drawn) [Example 22-2, 7-[2-(cyclopropylmethoxy)-6-hydroxyphenyl]-5-(3-piperidinyl)-3,4-dihydro-1H-pyrido[2,3-d]-pyrimidin-2-one hydrochloride]", "IC50": "< 500"}, {"smiles": "O=C1NCc2c(C3CCNCC3)cc(-c3c(O)cccc3OCC3CC3)nc2N1", "note": "[Example 22-3, 7-[2-(cyclopropylmethoxy)-6-hydroxyphenyl]-5-(4-piperidinyl)-3,4-dihydro-1H-pyrido[2,3-d]pyrimidin-2-one hydrochloride]", "IC50": "< 500"}, {"smiles": "O=S1(=O)NCc2c(C3CCCNC3)cc(-c3ccccc3O)nc2N1", "note": "(stereo not drawn) [Example 22-5, 2-[2,2-dioxido-5-(3-piperidinyl)-3,4-dihydro-1H-pyrido[2,3-c][1,2,6]thiadiazin-7-yl]phenol hydrochloride]", "IC50": "< 500"}, {"smiles": "CC(=O)NCc1c(C2CCCNC2)cc(-c2c(O)cccc2OCC2CC2)nc1N", "note": "(stereo not drawn) [Example 23-1, N-{[2-amino-6-[2-(cyclopropylmethoxy)-6-hydroxyphenyl]-4-(3-piperidinyl)-3-pyridinyl]methyl}acetamide hydrochoride]", "IC50": "< 500"}, {"smiles": "CCOC(=O)NCc1c(C2CCCNC2)cc(-c2c(O)cccc2OCC2CC2)nc1N", "note": "(stereo not drawn) [Example 23-2, ethyl [2-amino-6-[2-(cyclopropylmethoxy)-6-hydroxyphenyl]-4-(3-piperidinyl)-3-pyridinyl]methylcarbamate hydrochloride]", "IC50": "< 500"}, {"smiles": "Nc1nc(-c2c(O)cccc2OCC2CC2)cc(C2CCCNC2)c1CNC(=O)NC1CCCCC1", "note": "(stereo not drawn) [Example 23-3, N-{[2-amino-6-[2-(cyclopropylmethoxy)-6-hydroxyphenyl]-4-(3-piperidinyl)-3-pyridinyl]methyl}-N′-cyclohexylurea hydrochloride]", "IC50": "< 500"}, {"smiles": "CC(=O)N1Cc2c(C3CCCNC3)cc(-c3c(O)cccc3OCC3CC3)nc2NC1=O", "note": "(stereo not drawn) [Example 24-1, 3-acetyl-7-[2-(cyclopropylmethoxy)-6-hydroxyphenyl]-5-(3-piperidinyl)-3,4-dihydropyrido[2,3-d]pyrimidin-2(1H)-one hydrochloride]", "IC50": "< 500"}, {"smiles": "Oc1cccc(OCC2CC2)c1-c1cc(C2CCCNC2)c2c(n1)NCCC2", "note": "(stereo not drawn) [Example 28-01, 3-(cyclopropylmethoxy)-2-[4-(3-piperidinyl)-5,6,7,8-tetrahydro-1,8-naphthyridin-2-yl]phenol]", "IC50": "< 500"}, {"smiles": "Nc1cc2c(C3CCCNC3)cc(-c3c(O)cccc3OCC3CC3)nc2[nH]c1=O", "note": "(stereo not drawn) [Example 29-01, 3-amino-7-[2-(cyclopropylmethoxy)-6-hydroxyphenyl]-5-(3-piperidinyl)-1,8-naphthyridin-2(1H)-one hydrochloride]", "IC50": "< 500"}, {"smiles": "O=C(Nc1cc2c(C3CCCNC3)cc(-c3c(O)cccc3OCC3CC3)nc2[nH]c1=O)c1ccccc1", "note": "(stereo not drawn) [Example 29-2, N-[7-[2-(cyclopropylmethoxy)-6-hydroxyphenyl]-2-oxo-5-(3-piperidinyl)-1,2-dihydro-1,8-naphthyridin-3-yl]benzamide hydrochloride]", "IC50": "< 500"}, {"smiles": "CC(=O)Nc1cc2c(C3CCCNC3)cc(-c3c(O)cccc3OCC3CC3)nc2[nH]c1=O", "note": "(stereo not drawn) [Example 29-3, N-[7-[2-(cyclopropylmethoxy)-6-hydroxyphenyl]-2-oxo-5-(3-piperidinyl)-1,2-dihydro-1,8-naphthyridin-3-yl]acetamide hydrochloride]", "IC50": "< 500"}, {"smiles": "O=C(O)c1cc2c(C3CCCNC3)cc(-c3c(O)cccc3OCC3CC3)nc2[nH]c1=O", "note": "(stereo not drawn) [Example 30-1, 7-(2-cyclopropylmethoxy-6-hydroxy-phenyl)-2-oxo-5-piperidin-3-yl-1,2-dihydro[1,8]naphthyridine-3-carboxylic acid hydrochloride]", "IC50": "< 500"}, {"smiles": "CCCNC(=O)c1cc2c(C3CCCNC3)cc(-c3c(O)cccc3OCC3CC3)nc2[nH]c1=O", "note": "(stereo not drawn) [Example 31-1, 7-[2-(cyclopropylmethoxy)-6-hydroxyphenyl]-2-oxo-5-(3-pipedinyl)-N-propyl-1,2-dihydro-1,8-naphthyridine-3-carboxamide]", "IC50": "< 500"}, {"smiles": "CS(=O)(=O)NC(=O)c1cc2c(C3CCCNC3)cc(-c3c(O)cccc3OCC3CC3)nc2[nH]c1=O", "note": "(stereo not drawn) [Example 31-2, N-{[7-[2-(cyclopropylmethoxy)-6-hydroxyphenyl]-2-oxo-5-(3-piperidinyl)-1,2-dihydro-1,8-naphthyridin-3-yl]carbonyl}methanesulfonamide hydrochloride]", "IC50": "< 500"}, {"smiles": "Nc1ncnc2nc(-c3c(O)cccc3OCC3CC3)cc(C3CCCNC3)c12", "note": "(stereo not drawn) [Example 32-1, 2-[4-amino-5-(3-piperidinyl)pyrido[2,3-d]pyrimidin-7-yl]-3-(cyclopropylmethoxy)phenol hydrochloride]", "IC50": "2000 to 10000"}, {"smiles": "N#Cc1ccc(-c2ccccc2O)nc1N", "note": "[Example 33-1, 2-amino-6-(2-hydroxyphenyl)nicotinonitrile]", "IC50": "500 to 2000"}, {"smiles": "N#Cc1c(N2CCOCC2)cc(-c2ccccc2O)nc1N", "note": "[Example 34-1, 2-amino-6-(2-hydroxyphenyl)-4-(4-morpholinyl)nicotinonitrile]", "IC50": "500 to 2000"}]}]}
